Laboratory results reported in patent publication EP4682143A1, “PHARMACEUTICAL COMPOSITION CONTAINING EGFR INHIBITOR, AND PREPARATION METHOD THEREFOR AND USE THEREOF” (Convalife Pharmaceuticals Co., Ltd., priority 2023, dated 2024).
Read-outs that look alike come from different tables or passages of the source.

Assays:
[1] = system: Ba/F3-EGFR-G719S cell line; test: CellTiter-Glo (CTG) cell proliferation assay (Example A); assay type: cell-based; conditions: 72 hours, highest test concentration 1 µM
Protocol: Due to its high sensitivity and simple workflow, it is currently a widely used cell viability assay.
Cell viability was assessed by trypan blue exclusion to ensure viability above 90%. • c) Cells were adjusted to the desired density with complete growth medium and seeded into 96-well plates at 3,000 cells per well in 90 µL medium. • d) The seeded 96-well plates were incubated at 37°C under 5% CO2. • e) Ten-fold stock solutions of each compound were prepared, with the highest test concentration of 1 µM. Nine concentrations were generated by four-fold serial dilution. Subsequently, 10 µL of each diluted compound was transferred into the corresponding wells of the 96-well plates, with triplicate wells for each concentration. • f) The compound-treated 96-well plates were incubated for an additional 72 hours at 37°C under 5% CO2, followed by CTG analysis. • g) The CTG reagent was thawed and the cell plates were equilibrated to room temperature for 30 minutes. • h) An equal volume of CTG reagent was added to each well. • i) The plates were shaken on a plate shaker for 5 minutes to induce cell lysis. • j) Plates were incubated at room temperature for 20 minutes to stabilize the luminescent signal. • k) Luminescence was measured and data were collected.
Data were analyzed using GraphPad Prism 7.0 software. Nonlinear sigmoidal regression was applied to fit the dose-response curves, from which IC50 values were calculated.
Cell viability (%) was determined according to the following equation: Cell viability(%) = (Lumcompound−Lummedium control)/(Lumvehicle control−Lummedium control) × 100% [formula]

[2] = system: Cholangiocarcinoma PDX Model LD1-0060-200791; test: Cholangiocarcinoma PDX model in vitro antiproliferation assay (CTG); assay type: cell-based; conditions: for IC50: 144 h; for IC50 / Maximum Inhibition Rate (%) / Minimum Inhibition Rate (%): cultured 6 days, CTG; for Slope: slope of inhibition curve
Protocol: Tumor tissues were surgically excised from the subcutaneous tumors of tumor-bearing mice and immersed in HBSS buffer. Non-tumor and necrotic tissues were removed in a biosafety cabinet, and the tissues were cut into small pieces of 1-3 mm^3. Tumor pieces were digested with collagenase at 37°C for 1-2 hours. Single-cell suspensions were collected through a mesh, and centrifuged at 1200 rpm for 3 minutes to remove the supernatant. […] High-concentration drug stocks were diluted 1000× with BIO-MPM-1 medium to prepare 20× intermediate concentrations. Each well of a 96-well plate received 7.5 µL of the corresponding 20× drug solution or BIO-MPM-1 containing 2% DMSO (final DMSO concentration 0.2%). Then 135 µL of cell suspension was added per well. Cells were cultured continuously for 6 days at 37°C. Afterwards, 50 µL of CTG reagent was added per well. After mixing, 80 µL of the solution was measured in a multifunctional microplate reader for ATP content. Signals from each well were recorded to generate inhibition curves and calculate parameters such as IC50.
Inhibition curves were plotted using Xlfit (IDBS) to determine parameters including maximum inhibition, minimum inhibition, absolute IC50, relative IC50, and slope.
Proliferation rate (fold increase) was calculated as: Proliferation rate = (Vday6Control−Vday6Blank)/(Vday0Control−Vday0Blank) [formula]

| Compound | IC50 [1] [nM] | IC50 ([2]; read-out: Absolute IC50) [nM] | IC50 ([2]; read-out: Relative IC50) [nM] | Maximum Inhibition Rate (%) [2] [%] | Minimum Inhibition Rate (%) [2] [%] | Slope [2] |
| --- | --- | --- | --- | --- | --- | --- |
| C=C(CN1CC(N(C)C)C1)C(=O)Nc1cc2c(Nc3ccc(OCc4ccccn4)c(Cl)c3)c(C#N)cnc2cc1OCC [Compound A0905, N-(4-((3-chloro-4-(pyridin-2-ylmethoxy)phenyl)amino)-3-cyano-7-ethoxyquinolin-6-yl)-2-((3-(dimethylamino)azetidin-1-yl)methyl)propenamide] | 69.6 |  |  |  |  |  |
| (E)-N-(4-((3-chloro-4-(pyridin-2-ylmethoxy)phenyl)amino)-3-cyano-7-ethoxyquinolin-6-yl)-4-(3,3-difluoroazetidin-1-yl)but-2-enamide [Compound A0902] | 2.53 |  |  |  |  |  |
| CNCc1ccc(-c2cc3cc(F)cc(C(N)=O)c3o2)cc1 [CVL218] |  | 5770 | 7080 | 110.0 | 6.4 | 1.57 |
| C=C(CN1CCC(N(C)C)CC1)C(=O)Nc1cc2c(Nc3ccc(OCc4ccccn4)c(Cl)c3)c(C#N)cnc2cc1OCC [Compound A0906, N-(4-((3-chloro-4-(pyridin-2-ylmethoxy)phenyl)amino)-3-cyano-7-ethoxyquinolin-6-yl)-2-((4-(dimethylamino)piperidin-1-yl)methyl)propenamide] | 152 |  |  |  |  |  |
| CCOc1cc2ncc(C#N)c(Nc3ccc(OCc4ccccn4)c(Cl)c3)c2cc1NC(=O)/C=C/CN1CC(F)(F)C1 [Compound A0903, (E)-N-(4-((3-chloro-4-(pyridin-2-ylmethoxy)phenyl)amino)-3-cyano-7-ethoxyquinolin-6-yl)-4-(3,3-difluoroazetidin-1-yl)but-2-enamide] | 2.06 |  |  |  |  |  |
| CCOc1cc2ncc(C#N)c(Nc3ccc(OCc4ccccn4)c(Cl)c3)c2cc1NC(=O)/C=C/CN1CC(N(C)C)C1 [Compound A0901, (E)-N-(4-((3-chloro-4-(pyridin-2-ylmethoxy)phenyl)amino)-3-cyano-7-ethoxyquinolin-6-yl)-4-(3-(dimethylamino)azetidin-1-yl)but-2-enamide] | 16.8 |  |  |  |  |  |
| c1cc(-c2nc(N3CCOCC3)c3oc4ccc(CN5CC6CC5CO6)cc4c3n2)c2cc[nH]c2c1 (stereo not drawn) [CVL237] |  | 3480 | 3410 | 99.5 | -10.0 | 9.51 |
| CCOc1cc2ncc(C#N)c(Nc3ccc(OCc4ccccn4)c(Cl)c3)c2cc1NC(=O)/C=C/CN(C)C.O=C(O)/C=C\C(=O)O [Compound A009, (E)-N-(4-(3-chloro-4-(pyridin-2-ylmethoxy)anilino)-3-cyano-7-ethoxyquinolin-6-yl)-4-(dimethylamino)but-2-enamide maleate, reference compound] |  | 3310 | 3260 | 99.2 | -10.0 | 13.13 |
| (E)-N-(4-((3-chloro-4-(pyridin-2-ylmethoxy)phenyl)amino)-3-cyano-7-ethoxyquinolin-6-yl)-4-(methanesulfonamido)but-2-enamide [Compound A0904] | 2.18 |  |  |  |  |  |
